According to article PMC10824152 (Journal of medicinal chemistry, 2023):

Assays:
rat nNOS = rat nNOS (Rattus norvegicus, UniProt P29476)
human nNOS = human nNOS (Homo sapiens, UniProt P29475); conditions: ratio of Ki values versus 17

With `COc1cc(N)nc(CCc2cc(CCN(C)C)cc(F)c2F)c1.Cl.Cl` [Compound 18, 6-(5-(2-(Dimethylamino)ethyl)-2,3-difluorophenethyl)-4-methoxypyridin-2-amine dihydrochloride] the “Loss in potency as compared to 17, rat nNOS” value (rat nNOS) was 5 fold.
With `Cc1cc(CCc2cc(CCN(C)C)cc(F)c2F)nc(N)n1.Cl.Cl` [Compound 19, 4-(5-(2-(Dimethylamino)ethyl)-2,3-difluorophenethyl)-6-methylpyrimidin-2-amine dihydrochloride] the “Loss in potency as compared to 17, rat nNOS” value (rat nNOS) was 438 fold.
With `CN(C)CCc1cc(F)c(F)c(CCc2cc(C(F)F)cc(N)n2)c1.Cl.Cl` [Compound 23, 4-(Difluoromethyl)-6-(5-(2-(dimethylamino)ethyl)-2,3-difluorophenethyl)pyridin-2-amine dihydrochloride] the “Lower potency than 17, human nNOS” value (human nNOS) was 14 fold.
